Laboratory results as given in ChEMBL document CHEMBL4613209, “Quinolone hybrids and their anti-cancer activities: An overview” (Eur J Med Chem, 2019).

What was measured:
Assay type in all cases: functional, cell-based
L1210 [1] = experiment: Antiproliferative activity against mouse L1210 cells after 24 to 72 hrs by MTT assay
SMMC-7721 [2] = experiment: Antiproliferative activity against human SMMC7721 cells after 24 to 72 hrs by MTT assay
HL-60 [3] = experiment: Antiproliferative activity against human HL60 cells after 24 to 72 hrs by MTT assay
Hep 3B2 [4] = experiment: Antiproliferative activity against human Hep3B cells after 24 to 72 hrs by MTT assay
Hep 3B2 [5] = experiment: Cytotoxicity against human Hep3B cells assessed as reduction in cell viability by MTT assay
L1210 [6] = experiment: Cytotoxicity against mouse L1210 cells assessed as reduction in cell viability by MTT assay
SMMC-7721 [7] = experiment: Cytotoxicity against human SMMC7721 cells assessed as reduction in cell viability by MTT assay
HL-60 [8] = experiment: Cytotoxicity against human HL60 cells assessed as reduction in cell viability by MTT assay
CAPAN-1 = experiment: Cytotoxicity against human Capan1 cells assessed as reduction in cell viability by MTT assay

| SMILES | IC50 (L1210 [1]) | IC50 (SMMC-7721 [2]) | IC50 (HL-60 [3]) | IC50 (Hep 3B2 [4]) | IC50 (Hep 3B2 [5]) | IC50 (L1210 [6]) | IC50 (SMMC-7721 [7]) | IC50 (HL-60 [8]) | IC50 (CAPAN-1) |
| --- | --- | --- | --- | --- | --- | --- | --- | --- | --- |
| CCn1cc(-c2nc(SCc3nnc(-c4ccc([N+](=O)[O-])cc4)o3)n(CN(C)C)n2)c(=O)c2cc(F)c(N3CCN(C)CC3)cc21 | – | – | – | – | 1.5 to 24.5 µM | 1.5 to 24.5 µM | 1.5 to 24.5 µM | 1.5 to 24.5 µM | 1.5 to 24.5 µM |
| CCn1cc(-c2nc(SCc3nnc(-c4ccc(F)cc4)o3)n(CN(C)C)n2)c(=O)c2cc(F)c(N3CCN(C)CC3)cc21 | – | – | – | – | 1.5 to 5.2 µM | 1.5 to 5.2 µM | 1.5 to 5.2 µM | 1.5 to 5.2 µM | 1.5 to 5.2 µM |
| CCn1cc(-c2nnc(SCc3nnc(-c4cc(OC)c(OC)c(OC)c4)o3)[nH]2)c(=O)c2cc(F)c(N3CCN(C)CC3)cc21 | – | – | – | – | 3.8 to 35.2 µM | 3.8 to 35.2 µM | 3.8 to 35.2 µM | 3.8 to 35.2 µM | 3.8 to 35.2 µM |
| CCn1cc(-c2nc(SCc3nnc(-c4ccc(OC)c(OC)c4)o3)n(CN(C)C)n2)c(=O)c2cc(F)c(N3CCN(C)CC3)cc21 | – | – | – | – | 1.5 to 24.5 µM | 1.5 to 24.5 µM | 1.5 to 24.5 µM | 1.5 to 24.5 µM | 1.5 to 24.5 µM |
| CCn1cc(-c2nnc(SCC(=O)N/N=C/c3ccc(OC)cc3)o2)c(=O)c2cc(F)c(N3CCN(C)CC3)cc21 | 1.4 to 52.3 µM | 1.4 to 52.3 µM | 1.4 to 52.3 µM | 1.4 to 52.3 µM | – | – | – | – | – |
| CCn1cc(-c2nc(SCc3nnc(-c4ccc(Cl)cc4)o3)n(CN(C)C)n2)c(=O)c2cc(F)c(N3CCN(C)CC3)cc21 | – | – | – | – | 1.5 to 24.5 µM | 1.5 to 24.5 µM | 1.5 to 24.5 µM | 1.5 to 24.5 µM | 1.5 to 24.5 µM |
| CCn1cc(-c2nc(SCc3nnc(-c4ccc(OC)cc4)o3)n(CN(C)C)n2)c(=O)c2cc(F)c(N3CCN(C)CC3)cc21 | – | – | – | – | 1.5 to 24.5 µM | 1.5 to 24.5 µM | 1.5 to 24.5 µM | 1.5 to 24.5 µM | 1.5 to 24.5 µM |
| CCn1cc(-c2nnc(SCc3nnc(-c4ccc([N+](=O)[O-])cc4)o3)[nH]2)c(=O)c2cc(F)c(N3CCN(C)CC3)cc21 | – | – | – | – | 3.8 to 35.2 µM | 3.8 to 35.2 µM | 3.8 to 35.2 µM | 3.8 to 35.2 µM | 3.8 to 35.2 µM |
| CCn1cc(-c2nnc(SCc3nnc(-c4ccc(Cl)cc4)o3)[nH]2)c(=O)c2cc(F)c(N3CCN(C)CC3)cc21 | – | – | – | – | 3.8 to 35.2 µM | 3.8 to 35.2 µM | 3.8 to 35.2 µM | 3.8 to 35.2 µM | 3.8 to 35.2 µM |
| CCn1cc(-c2nc(SCc3nnc(-c4cc(OC)c(OC)c(OC)c4)o3)n(CN(C)C)n2)c(=O)c2cc(F)c(N3CCN(C)CC3)cc21 | – | – | – | – | 1.5 to 24.5 µM | 1.5 to 24.5 µM | 1.5 to 24.5 µM | 1.5 to 24.5 µM | 1.5 to 24.5 µM |

More lines, main results first:

| IC50 (L1210 [1]) | IC50 (SMMC-7721 [2]) | IC50 (HL-60 [3]) | SMILES | IC50 (Hep 3B2 [4]) | IC50 (Hep 3B2 [5]) | IC50 (L1210 [6]) | IC50 (SMMC-7721 [7]) | IC50 (HL-60 [8]) | IC50 (CAPAN-1) |
| --- | --- | --- | --- | --- | --- | --- | --- | --- | --- |
| 1.4 to 52.3 µM | 1.4 to 52.3 µM | 1.4 to 52.3 µM | CC1COc2c(N3CCN(C)CC3)c(F)cc3c(=O)c(-c4nnc(SCC(=O)N/N=C/c5ccc(C(=O)O)cc5)[nH]4)cn1c23 (configuration not stated) | 1.4 to 52.3 µM | – | – | – | – | – |
| 1.4 to 52.3 µM | 1.4 to 52.3 µM | 1.4 to 52.3 µM | CCn1cc(-c2nnc(SCC(=O)N/N=C/c3ccc(F)cc3)o2)c(=O)c2cc(F)c(N3CCN(C)CC3)cc21 | 1.4 to 52.3 µM | – | – | – | – | – |
| 1.4 to 52.3 µM | 1.4 to 52.3 µM | 1.4 to 52.3 µM | CCn1cc(-c2nnc(SCC(=O)N/N=C/c3cccc([N+](=O)[O-])c3)o2)c(=O)c2cc(F)c(N3CCN(C)CC3)cc21 | 1.4 to 52.3 µM | – | – | – | – | – |
| 1.4 to 52.3 µM | 1.4 to 52.3 µM | 1.4 to 52.3 µM | CC1COc2c(N3CCN(C)CC3)c(F)cc3c(=O)c(-c4nnc(N/N=C/c5ccccc5)[nH]4)cn1c23 (configuration not stated) | 1.4 to 52.3 µM | – | – | – | – | – |
| 1.4 to 52.3 µM | 1.4 to 52.3 µM | 1.4 to 52.3 µM | CCn1cc(-c2nnc(SCC(=O)N/N=C/c3ccccc3)o2)c(=O)c2cc(F)c(N3CCN(C)CC3)cc21 | 1.4 to 52.3 µM | – | – | – | – | – |
| 1.4 to 52.3 µM | 1.4 to 52.3 µM | 1.4 to 52.3 µM | COc1ccc(/C=N/NC(=O)CSc2nnc(-c3cn4c5c(c(N6CCN(C)CC6)c(F)cc5c3=O)OCC4C)[nH]2)cc1 (configuration not stated) | 1.4 to 52.3 µM | – | – | – | – | – |
| 1.4 to 52.3 µM | 1.4 to 52.3 µM | 1.4 to 52.3 µM | CCn1cc(-c2nnc(SCC(=O)N/N=C/c3ccc(O)c(OC)c3)o2)c(=O)c2cc(F)c(N3CCN(C)CC3)cc21 | 1.4 to 52.3 µM | – | – | – | – | – |
| 1.4 to 52.3 µM | 1.4 to 52.3 µM | 1.4 to 52.3 µM | CC1COc2c(N3CCN(C)CC3)c(F)cc3c(=O)c(-c4nnc(N/N=C/c5ccc(F)cc5)[nH]4)cn1c23 (configuration not stated) | 1.4 to 52.3 µM | – | – | – | – | – |
| 1.4 to 52.3 µM | 1.4 to 52.3 µM | 1.4 to 52.3 µM | CCn1cc(-c2nnc(SCC(=O)N/N=C/c3ccc([N+](=O)[O-])cc3)o2)c(=O)c2cc(F)c(N3CCN(C)CC3)cc21 | 1.4 to 52.3 µM | – | – | – | – | – |
| 1.4 to 52.3 µM | 1.4 to 52.3 µM | 1.4 to 52.3 µM | CCn1cc(-c2nnc(SCC(=O)N/N=C/c3ccc(C)cc3)o2)c(=O)c2cc(F)c(N3CCN(C)CC3)cc21 | 1.4 to 52.3 µM | – | – | – | – | – |
| 1.4 to 52.3 µM | 1.4 to 52.3 µM | 1.4 to 52.3 µM | CC1COc2c(N3CCN(C)CC3)c(F)cc3c(=O)c(-c4nnc(N/N=C/c5ccc([N+](=O)[O-])c6c5OCO6)[nH]4)cn1c23 (configuration not stated) | 1.4 to 52.3 µM | – | – | – | – | – |
| 1.4 to 52.3 µM | 1.4 to 52.3 µM | 1.4 to 52.3 µM | CC1COc2c(N3CCN(C)CC3)c(F)cc3c(=O)c(-c4nnc(N/N=C/c5ccc(Cl)cc5)[nH]4)cn1c23 (configuration not stated) | 1.4 to 52.3 µM | – | – | – | – | – |
